# Results published in ChEMBL document CHEMBL1938310, “Discovery of novel antitubercular 1,5-dimethyl-2-phenyl-4-([5-(arylamino)-1,3,4-oxadiazol-2-yl]methylamino)-1,2-dihydro-3H-pyrazol-3-one analogues” (Bioorg Med Chem Lett, 2012).
# Legend:
# Vero = assay: Cytotoxicity against African green monkey Vero cells at 62.5 ug/ml after 72 hrs by MTT assay; assay type: cell-based; conditions: chlorocebus sabaeus
# [1] = test system: Mycobacterium tuberculosis; assay: Antimycobacterial activity against Mycobacterium tuberculosis H37Rv by two fold agar dilution method; assay type: functional
smiles,measurement,setting,value
Cc1c(NCc2nnc(Nc3ccc(F)c(Cl)c3)o2)c(=O)n(-c2ccccc2)n1C,Activity,Vero,Non-toxic
same,MIC,[1],6.25 µg/mL
Cc1c(NCc2nnc(Nc3ccc(F)cc3)o2)c(=O)n(-c2ccccc2)n1C,Activity,Vero,Non-toxic
same,MIC,[1],0.78 µg/mL
Cc1c(NCc2nnc(Nc3ccc(Cl)cc3)o2)c(=O)n(-c2ccccc2)n1C,Activity,Vero,Non-toxic
same,MIC,[1],6.25 µg/mL
Cc1c(NCc2nnc(Nc3ccc(Br)cc3)o2)c(=O)n(-c2ccccc2)n1C,Activity,Vero,Non-toxic
same,MIC,[1],6.25 µg/mL
Cc1c(NCc2nnc(Nc3ccccc3Cl)o2)c(=O)n(-c2ccccc2)n1C,MIC,[1],10 µg/mL
Cc1c(Cl)cccc1Nc1nnc(CNc2c(C)n(C)n(-c3ccccc3)c2=O)o1,MIC,[1],10 µg/mL
Cc1c(NCc2nnc(Nc3ccc([N+](=O)[O-])cc3)o2)c(=O)n(-c2ccccc2)n1C,Activity,Vero,Non-toxic
same,MIC,[1],3.12 µg/mL
Cc1ccc(Nc2nnc(CNc3c(C)n(C)n(-c4ccccc4)c3=O)o2)cc1,MIC,[1],12.5 µg/mL
COc1ccc(Nc2nnc(CNc3c(C)n(C)n(-c4ccccc4)c3=O)o2)cc1,MIC,[1],12.5 µg/mL
CCOc1ccc(Nc2nnc(CNc3c(C)n(C)n(-c4ccccc4)c3=O)o2)cc1,MIC,[1],> 12.5 µg/mL
Cc1ccc(Nc2nnc(CNc3c(C)n(C)n(-c4ccccc4)c3=O)o2)c(C)c1,MIC,[1],12.5 µg/mL
Cc1cccc(C)c1Nc1nnc(CNc2c(C)n(C)n(-c3ccccc3)c2=O)o1,MIC,[1],10 µg/mL
COc1ccc(Nc2nnc(CNc3c(C)n(C)n(-c4ccccc4)c3=O)o2)c(OC)c1,MIC,[1],> 12.5 µg/mL
Cc1c(NCc2nnc(Nc3ccc(O)cc3)o2)c(=O)n(-c2ccccc2)n1C,MIC,[1],10 µg/mL
Cc1c(NCc2nnc(Nc3ccc(S(N)(=O)=O)cc3)o2)c(=O)n(-c2ccccc2)n1C,Activity,Vero,Non-toxic
same,MIC,[1],3.12 µg/mL
Cc1c(NCc2nnc(Nc3ccccc3)o2)c(=O)n(-c2ccccc2)n1C,MIC,[1],10 µg/mL
NNC(=O)c1ccncc1 [ISONIAZID],MIC,[1],0.78 µg/mL
